System: 922993-354-T-J3-PDC complex spheroid viability
Assay: Anticancer human tumor 922993-354-T-J3-PDC patient-derived endometrial carcinoma cell line growth inhibition [POLQ]
Conditions: for IC50: curve of first compound; for viability, T/C: stronger effect = lower value
Method in brief: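 PDC + HUVEC + MSC complex spheroids; POLQ inhibitors ± partner drugs; top conc. at/near clinical Cmax, else 10 microM (SN-38 1 microM), half-log dilutions; 37 degrees C, 5% CO2.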

[1] = second compound 0.0316 µM, first compound 0.0316 µM
[2] = second compound 0.0316 µM, first compound 0.1 µM
[3] = second compound 0.0316 µM, first compound 0.316 µM
[4] = second compound 0.0316 µM, first compound 1 µM
[5] = second compound 0.0316 µM, first compound 3.16 µM
[6] = second compound 0.0316 µM, first compound 10 µM
[7] = second compound 0.1 µM, first compound 0.0316 µM
[8] = second compound 0.1 µM, first compound 0.1 µM
[9] = second compound 0.1 µM, first compound 0.316 µM
[10] = second compound 0.1 µM, first compound 1 µM
[11] = second compound 0.1 µM, first compound 3.16 µM
[12] = second compound 0.1 µM, first compound 10 µM
[13] = second compound 0.316 µM, first compound 0.0316 µM
[14] = second compound 0.316 µM, first compound 0.1 µM
[15] = second compound 0.316 µM, first compound 0.316 µM
[16] = second compound 0.316 µM, first compound 1 µM
[17] = second compound 0.316 µM, first compound 3.16 µM
[18] = second compound 0.316 µM, first compound 10 µM
[19] = second compound 1 µM, first compound 0.0316 µM
[20] = second compound 1 µM, first compound 0.1 µM
[21] = second compound 1 µM, first compound 0.316 µM
[22] = second compound 1 µM, first compound 1 µM
[23] = second compound 1 µM, first compound 3.16 µM
[24] = second compound 1 µM, first compound 10 µM
[25] = second compound 3.16 µM, first compound 0.0316 µM
[26] = second compound 3.16 µM, first compound 0.1 µM
[27] = second compound 3.16 µM, first compound 0.316 µM
[28] = second compound 3.16 µM, first compound 1 µM
[29] = second compound 3.16 µM, first compound 3.16 µM
[30] = second compound 3.16 µM, first compound 10 µM
[31] = second compound 10 µM, first compound 0.0316 µM
[32] = second compound 10 µM, first compound 0.1 µM
[33] = second compound 10 µM, first compound 0.316 µM
[34] = second compound 10 µM, first compound 1 µM
[35] = second compound 10 µM, first compound 3.16 µM
[36] = second compound 10 µM, first compound 10 µM
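Also: spheroids exposed to the agents for one week.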
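For viability, T/C in this document: 100% = DMSO vehicle control wells.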

COc1cccc2c1C(=O)c1c(O)c3c(c(O)c1C2=O)CC(O)(C(=O)CO)CC3OC1CC(N)C(O)C(C)O1 (stereo unspecified) + Nc1ccc(C#CCN(C(=O)Cc2ncc(C(F)(F)F)cc2C(F)(F)F)c2ccc(F)cc2)nn1
IC50 (second compound 0.0316 µM): 5.58 µM | IC50 (second compound 0.1 µM): 5.44 µM | IC50 (second compound 0.316 µM): 5.79 µM | IC50 (second compound 1 µM): 5.39 µM | IC50 (second compound 3.16 µM): 2.31 µM | IC50 (second compound 10 µM): 0.24 µM | viability, T/C [1]: 103% | viability, T/C [2]: 105% | viability, T/C [3]: 91.3% | viability, T/C [4]: 84.9% | viability, T/C [5]: 74.7% | viability, T/C [6]: 28.3% | viability, T/C [7]: 102% | viability, T/C [8]: 103% | viability, T/C [9]: 92.3% | viability, T/C [10]: 87.9% | viability, T/C [11]: 74.3% | viability, T/C [12]: 24.9% | viability, T/C [13]: 105% | viability, T/C [14]: 101% | viability, T/C [15]: 99.6% | viability, T/C [16]: 85.4% | viability, T/C [17]: 71% | viability, T/C [18]: 32.1% | viability, T/C [19]: 98.9% | viability, T/C [20]: 105% | viability, T/C [21]: 96.2% | viability, T/C [22]: 80.7% | viability, T/C [23]: 72.1% | viability, T/C [24]: 28.2% | viability, T/C [25]: 95.2% | viability, T/C [26]: 93.4% | viability, T/C [27]: 79.7% | viability, T/C [28]: 75.4% | viability, T/C [29]: 39.9% | viability, T/C [30]: 17.5% | viability, T/C [31]: 78.7% | viability, T/C [32]: 75.2% | viability, T/C [33]: 41.5% | viability, T/C [34]: 14.5% | viability, T/C [35]: 38.1% | viability, T/C [36]: 14.8%

Nc1ccn(C2OC(CO)C(O)C2(F)F)c(=O)n1 (stereo unspecified) + COC1C(OC(N)=O)C(O)C(Oc2ccc3c(O)c(NC(=O)c4ccc(O)c(CC=C(C)C)c4)c(=O)oc3c2C)OC1(C)C
IC50 (second compound 0.0316 µM): < 0.0316 µM | IC50 (second compound 0.1 µM): < 0.0316 µM | IC50 (second compound 0.316 µM): < 0.0316 µM | IC50 (second compound 1 µM): < 0.0316 µM | IC50 (second compound 3.16 µM): < 0.0316 µM | IC50 (second compound 10 µM): < 0.0316 µM | viability, T/C [1]: 10.3% | viability, T/C [2]: 10.7% | viability, T/C [3]: 10.7% | viability, T/C [4]: 10.6% | viability, T/C [5]: 8.5% | viability, T/C [6]: 8.9% | viability, T/C [7]: 12.4% | viability, T/C [8]: 12.8% | viability, T/C [9]: 10.4% | viability, T/C [10]: 9.28% | viability, T/C [11]: 9% | viability, T/C [12]: 8.97% | viability, T/C [13]: 11.4% | viability, T/C [14]: 11.6% | viability, T/C [15]: 11.5% | viability, T/C [16]: 8.83% | viability, T/C [17]: 10.4% | viability, T/C [18]: 9.46% | viability, T/C [19]: 11.9% | viability, T/C [20]: 8.68% | viability, T/C [21]: 9.63% | viability, T/C [22]: 10.4% | viability, T/C [23]: 7.97% | viability, T/C [24]: 9.31% | viability, T/C [25]: 12.1% | viability, T/C [26]: 8.92% | viability, T/C [27]: 10.3% | viability, T/C [28]: 10.4% | viability, T/C [29]: 12.1% | viability, T/C [30]: 8.3% | viability, T/C [31]: 8.46% | viability, T/C [32]: 10.1% | viability, T/C [33]: 9.42% | viability, T/C [34]: 8.26% | viability, T/C [35]: 8.87% | viability, T/C [36]: 8.43%

C#Cc1c(F)ccc2cc(O)cc(-c3ncc4c(N5CC6CCC(C5)N6)nc(OCC56CCCN5CC(F)C6)nc4c3F)c12 (stereo unspecified) + Cc1cccc(N(C)C(=O)C2C(O)CCN2c2nc(C)cc(C(F)(F)F)c2C#N)c1
IC50 (second compound 0.0316 µM): > 10 µM | IC50 (second compound 0.1 µM): > 10 µM | IC50 (second compound 0.316 µM): > 10 µM | IC50 (second compound 1 µM): > 10 µM | IC50 (second compound 3.16 µM): > 10 µM | IC50 (second compound 10 µM): > 10 µM | viability, T/C [1]: 107% | viability, T/C [2]: 102% | viability, T/C [3]: 104% | viability, T/C [4]: 106% | viability, T/C [5]: 95.8% | viability, T/C [6]: 91.3% | viability, T/C [7]: 107% | viability, T/C [8]: 95% | viability, T/C [9]: 94% | viability, T/C [10]: 93.7% | viability, T/C [11]: 87.9% | viability, T/C [12]: 98.7% | viability, T/C [13]: 109% | viability, T/C [14]: 108% | viability, T/C [15]: 98.5% | viability, T/C [16]: 101% | viability, T/C [17]: 95% | viability, T/C [18]: 91.7% | viability, T/C [19]: 102% | viability, T/C [20]: 107% | viability, T/C [21]: 98.7% | viability, T/C [22]: 94.5% | viability, T/C [23]: 97.8% | viability, T/C [24]: 89.2% | viability, T/C [25]: 106% | viability, T/C [26]: 101% | viability, T/C [27]: 104% | viability, T/C [28]: 104% | viability, T/C [29]: 99.5% | viability, T/C [30]: 86.2% | viability, T/C [31]: 103% | viability, T/C [32]: 97.2% | viability, T/C [33]: 98.1% | viability, T/C [34]: 94.8% | viability, T/C [35]: 100% | viability, T/C [36]: 78.4%
